Results taken from patent US20150119363A1, “METHODS OF TREATING BACTERIAL INFECTIONS” (Rampex Pharmaceuticals, Inc., priority 2012, published 2015).
Structures can show the parent of a compound that is named as a salt. Where two headings read alike, the source gives them in different places.

Tests used:
[1] = test system: Acinetobacter baumannii AB1054 (OXA-23); assay: Checkerboard assay, biapenem potentiation (MPC8); format: cell-based; details: concentration to reduce biapenem MIC 8-fold
Method: (§1) The potency and spectrum of β-lactamase inhibitors was determined by assessing their antibiotic potentiation activity.
(§2) The potentiation effect is observed by the reduction of the minimum inhibitory concentration of β-lactam antibiotics in the presence of β-lactamase inhibitors (BLIs). […] Methods for Dilution of Antimicrobial Susceptibility Tests for Bacteria That Grow Aerobically—Eighth Edition; Approved Standard. CLSI Document M07-A8, 2009). In this assay, multiple dilutions of two drugs, namely BLI and β-lactam (biapenem), are being tested, alone and in combination, at concentrations equal to, above and below their respective minimal inhibitory concentrations (MICs). BLIs are solubilized in 10% DMSO at 10 mg/mL. Stock solutions are further diluted, according to the needs of a particular assay, in Mueller Hinton Broth (MHB). Stock solution can be stored at −80° C.
(§3) The checkerboard (CB) assay is performed in microtiter plates. Biapenem is diluted in the x axis, each column containing a single concentration of antibiotic. BLIs are diluted in the y axis, each row containing an equal concentration of BLI. The result of these manipulations is that each well of the microtiter plate contains a unique combination of concentrations of the two agents. The assay is performed in MHB with a final bacterial inoculum of 5×10^5 CFU/mL (from an early-log phase culture). Microtiter plates are incubated during 20 h at 35° C. and are read using a microtiter plate reader (Molecular Devices) at 650 nm as well as visual observation using a microtiter plate reading mirror.
(§4) Biapenem is a carbapenem β-lactam; only selected β-lactamases confer resistance to this class of antibiotics. Among them are serine carbapemenases that belong to class A and class D. Biapenem potentiation is studied in strains expressing various carbapenemases from these classes using CB assays. […] Cyclic boronic acid derivatives were capable of reducing biapenem MICs up to 1000-fold (Table 3).

[2] = test system: Acinetobacter baumannii AB1057 (OXA-58); assay: Checkerboard assay, biapenem potentiation (MPC8); format: cell-based; details: concentration to reduce biapenem MIC 8-fold
Method: as §1, §2, §3, §4

[3] = test system: Klebsiella pneumoniae KP1004 (KPC-2); assay: Checkerboard assay, biapenem potentiation (MPC8); format: cell-based; details: concentration to reduce biapenem MIC 8-fold
Method: as §1, §2, §3, §4

[4] = target: T1, KPC-2 (Klebsiella pneumoniae KP1004 lysate) (Klebsiella pneumoniae, UniProt Q9F663); assay: Inhibition of biapenem hydrolysis by bacterial lysate; format: biochemical
T1 construct: Lysates were prepared from bacteria expressing various β-lactamases as a source of enzymes; endogenous in cells; host or cells: Klebsiella pneumoniae strains KP1004 and KP1008 (freeze-thaw lysate supernatants)
Method: (§5) The activity of β-lactamase inhibitors to inhibit hydrolysis of biapenem was studied. Lysates were prepared from bacteria expressing various β-lactamases as a source of enzymes. Bacterial lysates were prepared as follows. A single colony from the fresh overnight plate was transferred to 5 mL of LB broth and grown to OD600=0.6-0.8. Next, this culture was transferred to 500 mL of LB and grown to OD600=0.7-0.9. Cells were pelleted by centrifugation at 5000 RPM (JA-14 rotor) for 15 minutes at room temperature. The pellet was resuspended in 10 mL of PBS. Five freeze-thaw cycles by putting cells at −20° C. and thawing them at the room temperature were next applied. After the last thaw step cells were spun down at 18K for 30 minutes and the supernatant was collected. This lysate was stored at −20° C.
(§6) Next, the activity of bacterial lysates was optimized for biapenem cleavage as follows. 50 μl of buffer A (50 mM Sodium Phosphate pH=7; 0.5% glucose, 1 mM MgCl2) was added to each well of 96-well UV-transparent plate. 50 μl of lysate was titrated vertically in 96-well plate column to generate 2-fold lysate dilutions. 100 μl of buffer A was added to each well, placed in plate reader at 37° C. and incubated for 15 minutes. 50 μl of 50 μg/mL solutions of biapenem in buffer A (pre-incubated at 37° C. for 15 minutes) were added to each well. Hydrolysis of biapenem was measured at 296 nm. This experiment was used to determine the optimal lysate dilution which produced a linear curve of relative UV signal that decreased to approximately OD=0.3-0.5 over 1 hour.
(§7) Finally, the potency of cyclic boronic acid derivative to inhibit the cleavage of biapenem cleavage by bacterial lysates was determined. 100 μl of buffer A (50 mM Sodium Phosphate pH=7; 0.5% glucose, 1 mM MgCl2) was added to each well of 96-well UV-transparent plate. 50 μl of 6× cyclic boronic acid derivative solution in buffer A was titrated vertically in 96-well plate column to generate 3-fold dilutions. 50 μl of diluted lysate in buffer A (optimal dilution is determined in experiment above) was added, and the plate was incubated in the plate reader at 37° C. for 15 minutes. 50 μl of 50 μg/mL solution of biapenem in buffer A (pre-incubated at 37° C. for 15 minutes) were next added to each well and hydrolysis of biapenem was recorded at 296 nm. EC50 of inhibition was determined by plotting the rate of biapenem cleavage vs. cyclic boronic acid derivative concentration.

[5] = target: T2, KPC-2 (Klebsiella pneumoniae KP1008 lysate) (Klebsiella pneumoniae, UniProt Q9F663); assay: as above; format: biochemical
T2 construct: Lysates were prepared from bacteria expressing various β-lactamases as a source of enzymes; endogenous in cells; host or cells: Klebsiella pneumoniae strains KP1004 and KP1008 (freeze-thaw lysate supernatants)
Method: as §5, §6, §7

[6] = target: T3, KPC-3 (Escherichia coli EC1007 lysate) (Klebsiella pneumoniae, UniProt Q9F663, H272Y); assay: as above; format: biochemical
T3 construct: Lysates were prepared from bacteria expressing various β-lactamases as a source of enzymes; endogenous in cells; host or cells: Escherichia coli strain EC1007 (freeze-thaw lysate supernatant)
Method: as §5, §6, §7

[7] = target: T4, SME-2 (Serratia marcescens SM1000 lysate) (Serratia marcescens, UniProt P52682); assay: as above; format: biochemical
T4 construct: Lysates were prepared from bacteria expressing various β-lactamases as a source of enzymes
Method: as §5, §6, §7

KP1004 KPC-2 = assay: Dose titration biapenem potentiation assay (MPC1); format: cell-based, Klebsiella pneumoniae; details: biapenem 1 μg/mL
Method: (§8) The potency and spectrum of β-lactamase inhibitors is also determined by assessing their biapenem potentiation activity in a dose titration potentiation assay using strains expressing serine carbapemenases (such as KPC). The potentiation effect is observed as the ability of BLI compounds to inhibit growth in the presence of sub-inhibitory concentration of biapenem. […] Biapenem is present in the test medium at 1 μg/mL. Compounds tested at the highest concentration of 40 μg/mL. […] Table 5 summarizes BLI potency of biapenem potentiation (MPC1). Biapenem MIC for each strain is also shown.

KP1008 KPC-2 = assay: Dose titration biapenem potentiation assay (MPC1); format: cell-based, Klebsiella pneumoniae; details: biapenem 1 μg/mL
Method: as §8

EC1007 KPC-3 = assay: Dose titration biapenem potentiation assay (MPC1); format: cell-based, Escherichia coli; details: biapenem 1 μg/mL
Method: as §8

ECL1004 NMC-A = assay: Dose titration biapenem potentiation assay (MPC1); format: cell-based, Enterobacter cloacae; details: biapenem 1 μg/mL
Method: as §8

[8] = EC1007 KPC-3 lysate, read-out: IC50 (μg/mL) of inhibition of biapenem hydrolysis
[9] = SM1000 SME-2 lysate; read-out: IC50 (μg/mL) of inhibition of biapenem hydrolysis
[10] = read-out: IC50 (μg/mL) of inhibition of biapenem hydrolysis; SM1000 SME-2 lysate

T4 sequence (P52682 28-294 limits assumed): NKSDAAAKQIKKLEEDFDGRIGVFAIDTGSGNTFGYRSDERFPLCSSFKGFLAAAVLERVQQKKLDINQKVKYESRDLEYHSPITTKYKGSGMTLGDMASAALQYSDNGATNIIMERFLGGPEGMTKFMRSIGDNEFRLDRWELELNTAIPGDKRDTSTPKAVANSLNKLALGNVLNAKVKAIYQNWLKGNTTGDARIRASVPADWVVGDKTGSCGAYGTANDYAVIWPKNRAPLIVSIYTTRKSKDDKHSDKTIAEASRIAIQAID
T3 sequence (Q9F663 25-293 H272Y): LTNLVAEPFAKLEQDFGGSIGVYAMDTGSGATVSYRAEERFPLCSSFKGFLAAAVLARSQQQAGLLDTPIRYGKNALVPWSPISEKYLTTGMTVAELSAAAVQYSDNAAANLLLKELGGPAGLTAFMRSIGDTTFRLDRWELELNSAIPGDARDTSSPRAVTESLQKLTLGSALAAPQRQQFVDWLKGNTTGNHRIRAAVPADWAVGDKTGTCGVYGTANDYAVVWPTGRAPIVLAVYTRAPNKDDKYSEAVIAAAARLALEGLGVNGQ
T1 sequence (Q9F663 25-293 limits assumed): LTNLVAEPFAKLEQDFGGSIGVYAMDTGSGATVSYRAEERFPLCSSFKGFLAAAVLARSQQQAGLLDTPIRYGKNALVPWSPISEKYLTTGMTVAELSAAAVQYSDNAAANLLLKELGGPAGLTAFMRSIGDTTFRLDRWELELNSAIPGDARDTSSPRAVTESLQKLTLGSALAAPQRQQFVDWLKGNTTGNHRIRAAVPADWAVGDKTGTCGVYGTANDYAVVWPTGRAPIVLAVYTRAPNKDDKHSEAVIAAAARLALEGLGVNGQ
T2 sequence (Q9F663 25-293 limits assumed): as above

SMILES	MPC8 [1]	MPC8 [2]	MPC8 [3]	IC50 [4] [µM]	IC50 [5] [µM]	IC50 [6, 8] [µM]	IC50 [7, 9] [µM]	BPM MPC1 KP1004 KPC-2 (KP1004 KPC-2)	BPM MPC1 KP1008 KPC-2 (KP1008 KPC-2)	BPM MPC1 EC1007 KPC-3 (EC1007 KPC-3)	BPM MPC1 ECL1004 NMC-A (ECL1004 NMC-A)	IC50 [6] [µM]	IC50 [7, 10] [µM]	BPM MPC1 KP1004 KPC-2 (KP1004 KPC-2; numeric value) [µg/mL]	BPM MPC1 KP1008 KPC-2 (KP1008 KPC-2; numeric value) [µg/mL]	BPM MPC1 EC1007 KPC-3 (EC1007 KPC-3; numeric value) [µg/mL]	BPM MPC1 ECL1004 NMC-A (ECL1004 NMC-A; numeric value) [µg/mL]
O=C(O)CC1CC[C@H](NC(=O)C2CC2)B(O)O1 (stereo partly drawn) [Compound 4, 2-((3R)-3-(cyclopropanecarboxamido)-2-hydroxy-1,2-oxaborinan-6-yl)acetic acid]	Z (Z = MPC8 of greater than 1 μg/mL.)	Z (Z = MPC8 of greater than 1 μg/mL.)	X (X = MPC8 of less than 0.16 μg/mL.)	0.415 to 4.15	> 4.15	0.415 to 4.15	0.415 to 4.15	X (X = MPC1 of less than 1 μg/mL.)	X (X = MPC1 of less than 1 μg/mL.)	X (X = MPC1 of less than 1 μg/mL.)	X (X = MPC1 of less than 1 μg/mL.)	–	–	–	–	–	–
O=C(O)C[C@@H]1CC[C@H](NC(=O)Cc2ccccc2)B(O)O1 [Compound 6, 2-((3R,6S)-2-hydroxy-3-(2-phenylacetamido)-1,2-oxaborinan-6-yl)acetic acid]	X (X = MPC8 of less than 0.16 μg/mL.)	Z (Z = MPC8 of greater than 1 μg/mL.)	X (X = MPC8 of less than 0.16 μg/mL.)	0.344 to 3.44	0.344 to 3.44	< 0.344	0.344 to 3.44	X (X = MPC1 of less than 1 μg/mL.)	X (X = MPC1 of less than 1 μg/mL.)	X (X = MPC1 of less than 1 μg/mL.)	X (X = MPC1 of less than 1 μg/mL.)	–	–	–	–	–	–
N[C@H]1CCC(CC(=O)O)OB1O (stereo partly drawn) [Compound 7, 2-((3R)-3-amino-2-hydroxy-1,2-oxaborinan-6-yl)acetic acid hydrochloride]	–	–	–	–	–	–	–	–	–	–	–	> 5.78	> 5.78	–	–	–	–
C[C@]1(Cn2ccnn2)[C@H](C(=O)O)N2C(=O)C[C@H]2S1(=O)=O [Tazobactam, reference compound]	–	–	–	> 3.33	> 3.33	–	–	–	–	–	–	> 3.33	0.333 to 3.33	40	0.3	5	0.6
